O=C(O)CN1C(=O)CNC1=O
melting point: 185 to 187 °C

c1cn(-c2cncnc2)cn1
melting point: 129 to 131 °C

Cc1ccc(C)n1-c1ccc(N)cc1
melting point: 93 to 95 °C

CC(C)C(Oc1ccccc1C#N)C(=O)O (configuration not stated)
melting point: 67 to 69 °C

O=C(c1ccc(F)cc1)c1ccc(Cl)cc1
melting point: 115 to 117 °C

CCOC(=O)c1ncoc1-c1scnc1C
melting point: 78 to 80 °C

CCCC(=O)Nc1cccc(N)c1C
melting point: 106 to 108 °C

CC(=O)c1ccc(OCC(=O)N2CCOCC2)cc1
melting point: 55 to 59 °C

O=C(O)c1cc(Cl)cc2cccnc12
melting point: 224 to 226 °C

CC(=O)Nc1cccc(C(=O)O)n1
melting point: 226 to 228 °C

Fc1ccc(CNc2nnc(S)s2)cc1
melting point: 168 to 170 °C

O=c1ccc(-n2ccnc2)n[nH]1
melting point: 251 to 253 °C

Nc1ccc(OCCO)nc1
melting point: 63 to 65 °C

O=C(O)c1ccc(SCc2ccccc2)cc1
melting point: 184 to 186 °C

Nc1ccccc1S(=O)(=O)N1CCOCC1
melting point: 114 to 116 °C

CC(=O)c1c(Cl)nc2ccccn12
melting point: 116 to 118 °C

NC(=O)CNc1ccccc1
melting point: 139 to 141 °C

Cc1nccn1-c1ccc(F)cc1N
melting point: 153 to 155 °C

Nc1ccc(-c2csc(N)n2)cc1
melting point: 178 to 180 °C

COc1cccc(CC2(C(=O)O)CC3CCC2C3)c1 (configuration not stated)
melting point: 67 to 69 °C

O=C(CCCc1ccccc1)Cc1ccc(Cl)cc1
melting point: 31 to 33 °C

O=C(Nc1ccsc1C(=O)O)c1ccoc1
melting point: 207 to 209 °C

N#Cc1ccc(S(=O)(=O)NC2CC2)cc1
melting point: 99 to 101 °C

COc1cccc(C(=O)c2c(N)sc3c2CCC3)c1
melting point: 127 to 129 °C

O=C1Cc2cc(Br)c(Cl)cc2N1
melting point: 219 to 221 °C

Cc1ccc(C)c(-c2n[nH]c(=O)c3ccccc23)c1
melting point: 216 to 218 °C

COc1ccc(C)cc1NC(=O)c1cc2ccccc2cc1O
melting point: 178 to 180 °C

Brc1ccc2c(c1)CCCCN2
melting point: 52 to 54 °C

CC(C)(C)c1cc(CCC(=O)O)cc(C(C)(C)C)c1O
melting point: 165 to 167 °C

CC1(C)Cc2cc(C(=O)O)sc2-c2ccccc21
melting point: 209 to 211 °C

Clc1ccc(-c2nnc(Br)s2)cc1
melting point: 135 to 137 °C

N#Cc1cccc(Br)c1N=C=O
melting point: 64 to 66 °C

O=C1c2ccc([N+](=O)[O-])cc2C(=O)N1c1ccc(F)cc1
melting point: 207 to 209 °C

N#Cc1cccc(NC(=O)NC2CC2)c1
melting point: 139 to 141 °C

O=C(O)c1cnn2c1NCCC2
melting point: 141 to 143 °C

NCc1ccc(NC(=O)CN2CCc3ccccc32)cc1
melting point: 126 to 128 °C

NC(NO)=C1C=CC=NC1=O
melting point: 176 to 178 °C

COC(=O)c1cc(Oc2ccc(F)cc2)c(F)cc1N
melting point: 97 to 99 °C

c1ccc(CN2CCNc3ccccc32)cc1
melting point: 44 to 46 °C

O=C(O)c1cc(-c2ccccn2)nc2ccccc12
melting point: 297 to 299 °C

Cc1ccc2oc(C(=O)O)cc2c1
melting point: 243 to 245 °C

CCOC(=O)c1sc(N)c(C(=O)OC(C)(C)C)c1C
melting point: 90 to 92 °C

Nc1nnc2ccccn12
melting point: 229 to 231 °C

O=C(Nc1ccccc1)c1cccc(-n2ccnc2S)c1
melting point: 228 to 230 °C

O=C(O)Cc1csc(NC(=O)c2cccs2)n1
melting point: 194 to 196 °C

Nc1nc(-c2ccco2)cs1
melting point: 109 to 111 °C

CCOC(=O)C(=O)c1nccn1Cc1ccccc1
melting point: 57 to 59 °C

CC(Cl)C(=O)c1ccc(Br)cc1 (configuration not stated)
melting point: 54 to 56 °C

O=C(O)CSc1ncnc2scc(-c3ccccc3)c12
melting point: 186 to 188 °C

O=C(O)c1ccc(COc2ccc(F)cc2)o1
melting point: 165 to 167 °C

Cc1c(S(=O)(=O)Cl)oc2ccc(F)cc12
melting point: 81 to 83 °C

O=C(O)CCNC(=O)Nc1ccccc1
melting point: 173 to 175 °C

Cc1cc(Cl)c(N)cc1Cl
melting point: 86 to 88 °C

O=c1[nH]c2ccccc2cc1CCl
melting point: 199 to 201 °C

Cc1ccc(OC(F)F)c(C(=O)CBr)c1
melting point: 55 to 57 °C

CCOC(=O)c1c(N)sc(-c2ccccc2)c1C
melting point: 94 to 96 °C

Cc1csc(NC(=O)Cc2ccc(N)cc2)n1
melting point: 143 to 145 °C

O=C(O)c1ccc(I)cc1Cl
melting point: 159 to 161 °C

O=C(O)CCC(=O)N1CCN(S(=O)(=O)c2ccccc2)CC1
melting point: 155 to 157 °C

O=C1C(Br)CCN1c1ccc(Cl)c(F)c1 (configuration not stated)
melting point: 94 to 96 °C

Nc1ccc(OCc2ccccc2)nc1
melting point: 42 to 44 °C

NC(=O)c1ccc(C(N)=S)cc1
melting point: 240 to 242 °C

CC(Cl)C(=O)NC(N)=O (configuration not stated)
melting point: 159 to 161 °C

Oc1ccc(OCc2cccnc2)cc1
melting point: 157 to 159 °C

O=C1NC(=O)c2cc(S(=O)(=O)Cl)ccc21
melting point: 163 to 165 °C

COC(=O)CCCN1C(=O)NC(C)(C)C1=O
melting point: 60 to 62 °C

O=C(O)c1cc(-c2ccc(-c3ccccc3)cc2)nc2ccccc12
melting point: 289 to 291 °C

O=C(NC1CCN(C(=O)CCl)CC1)c1ccccc1
melting point: 155 to 157 °C

CCn1nc(C)c(C(=O)O)c1Cl
melting point: 129 to 131 °C

O=C(NC(CO)C(=O)O)c1ccccc1 (configuration not stated)
melting point: 159 to 161 °C

COc1cc(C(C)=O)ccc1SC
melting point: 92 to 94 °C

Cn1cc(C#N)c(=O)n(C)c1=O
melting point: 154 to 156 °C

— a melting point compilation (Tetko et al.)
